Measured values taken from publication PMC11320178 (Chemical Science, 2024).
Where no end group is shown, it is not given here.

Tests used:
[1] = type: physicochemical; details: equimolar semicarbazide derivative (∼100 μM) in PBS pH 7.4, 20 min, LC-MS
[2] = Stability of the cyclic peptide against ROS environment; type: physicochemical; details: P1 ∼100 μM, ∼150 μM H2O2 in PBS pH 7.4, after 6 h, LC-MS
[3] = pH 2

CIITRPC (also: sidechain bridge or staple (positions not given here)) [P1]
Linearization by semicarbazide (diazaborine conjugate formation) [1]: linearized
Stability in H2O2 [2]: remarkable stability
Stability under a wide range of pH values (no complete dissociation of the thiazolidine ring) [3]: high stability
